Starred links: 1 amine or outer side, 2 acyl side, 3 side chain; linkers in the order of their positions; H or OH if unused. Positions of bridges follow the written chain, without caps; N, C: chain ends. Non-standard residues stand in square brackets, D forms with d. Residues, ends and D or L forms follow the SMILES beside them. Groups on a side chain read outwards from the residue. *: point of attachment. X46 = CCCCCCCCCCCC(=O)N[C@@H](CCC(=O)NCCOCCOCC(=O)NCCOCCOCC(=O)NCCCC[C@H](NC(=O)COCCOCCNC(=O)COCCOCCNC(=O)CC[C@H](NC(=O)CCCCCCCCCCC)C(=O)O)C(=O)*)C(=O)O; Me3N+(CH2)2O(CH2)2O(CH2)2CO = C[N+](C)(C)CCOCCOCCC(=O)*; Trp(7-Me) = Cc1cccc2c(C[C@H](N)C(=O)O)c[nH]c12; γGlu = O=C(O)[C@H](CCC(=O)[*:2])N[*:1]; 2Nal = N[C@@H](Cc1ccc2ccccc2c1)C(=O)O; PEG6 = NCCOCCOCCOCCOCCOCCOCCC(=O)O; 3Pal = N[C@@H](Cc1cccnc1)C(=O)O; Myristoyl = CCCCCCCCCCCCCC(=O)*; Lys(Me) = CNCCCC[C@H](N)C(=O)O; NMeK = CN[C@@H](CCCCN)C(=O)O; Pen = CC(C)(S)[C@H](N)C(=O)O; Lauroyl = CCCCCCCCCCCC(=O)*; Thp = NC1(C(=O)O)CCOCC1; X3 = C[N+](C)(C)CCCCC*; AEEA = NCCOCCOCC(=O)O
Legend:
[1] = Exposed Polar Surface Area (EPSA); format: physicochemical; settings: SFC on Chirex 3014 column; sample 1 mM DMSO stock; read-out: EPSA
Procedure, shortened: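 Polarity measured by SFC on a Chirex 3014 column (35 °C, 4 mL/min) with methanol/ammonium formate in CO2 as gradient eluent. Retention times were normalised to EPSA (Å^2) against eight reference compounds.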

IL-23R = target: T1, IL-23R (Homo sapiens, UniProt Q5VWK5); experiment: IL23R Reporter Assay; format: cell-based; settings: HEK293 cells containing IL-23R, IL-12RP1 and STAT-inducible firefly luciferase reporter; 10 ng/mL IL-23 (EC90); 5 h at 37° C.; read-out: IL23R Reporter Assay
T1 construct: host or cells: HEK293
T1 sequence (Q5VWK5 24-629): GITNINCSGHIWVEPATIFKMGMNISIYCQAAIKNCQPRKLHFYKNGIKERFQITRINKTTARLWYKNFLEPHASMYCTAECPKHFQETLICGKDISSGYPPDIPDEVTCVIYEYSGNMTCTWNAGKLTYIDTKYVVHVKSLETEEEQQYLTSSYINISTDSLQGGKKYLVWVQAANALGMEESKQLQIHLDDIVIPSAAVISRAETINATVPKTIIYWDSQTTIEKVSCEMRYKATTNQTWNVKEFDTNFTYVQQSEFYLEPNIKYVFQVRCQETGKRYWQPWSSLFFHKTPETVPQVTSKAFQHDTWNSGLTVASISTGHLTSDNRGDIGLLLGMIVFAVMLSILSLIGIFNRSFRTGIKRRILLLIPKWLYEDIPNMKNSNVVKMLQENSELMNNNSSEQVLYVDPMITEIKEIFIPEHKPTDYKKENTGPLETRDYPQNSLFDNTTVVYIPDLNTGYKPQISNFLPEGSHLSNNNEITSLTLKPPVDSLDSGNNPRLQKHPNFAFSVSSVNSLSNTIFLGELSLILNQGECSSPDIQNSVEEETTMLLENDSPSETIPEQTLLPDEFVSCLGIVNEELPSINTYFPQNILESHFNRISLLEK

SMILES | EPSA [1] [A^2] | IC50 (IL-23R) [nM]
CCCCCCCCCCCC(=O)N[C@@H](CCC(=O)NCCOCCOCC(=O)NCCOCCOCC(=O)NCCCC[C@H](NC(=O)C1(NC(=O)[C@H](Cc2ccc3ccccc3c2)NC(=O)[C@H](Cc2ccc(OCCCCC[N+](C)(C)C)cc2)NC(=O)[C@H]2NC(=O)[C@H](CCCCNC(C)=O)NC(=O)[C@H](Cc3c[nH]c4c(C)cccc34)NC(=O)[C@H]([C@@H](C)O)NC(=O)[C@H](CC(N)=O)NC(=O)[C@@H](NC(=O)CCOCCOCC[N+](C)(C)C)C(C)(C)SSC2(C)C)CCOCC1)C(=O)N[C@@H](CC(N)=O)C(=O)N[C@@H](Cc1cccnc1)C(=O)N(C)[C@@H](CCCCNC(=O)COCCOCCNC(=O)COCCOCCNC(=O)CC[C@H](NC(=O)CCCCCCCCCCC)C(=O)O)C(N)=O)C(=O)O [compound 349, cPEG3aCO-Pen(3)-N-T-7MeW-K(Ac)-Pen(3)-TMAPF-2Nal-THP-K(PEG2PEG2gEC12)-N-3Pya-NMeK(PEG2PEG2gEC12)-CONH2] ({Me3N+(CH2)2O(CH2)2O(CH2)2CO}-[Pen]NT[Trp(7-Me)]K(Ac)[Pen]Y(X3)[2Nal][Thp]K([AEEA-AEEA-γGlu-Lauroyl])N[3Pal][NMeK]([AEEA-AEEA-γGlu-Lauroyl])-NH2; disulfide 1-6) | 179 | 220
CCCCCCCCCCCC(=O)N[C@@H](CCC(=O)NCCOCCOCC(=O)NCCOCCOCC(=O)NCCCC[C@@H]1NC(=O)[C@H](Cc2c[nH]c3c(C)cccc23)NC(=O)[C@H]([C@@H](C)O)NC(=O)[C@H](CC(=O)N(C)C)NC(=O)[C@@H](NC(=O)CCOCCOCC[N+](C)(C)C)C(C)(C)SSC(C)(C)[C@@H](C(=O)N[C@@H](Cc2ccc(OCCCCC[N+](C)(C)C)cc2)C(=O)N[C@@H](Cc2ccc3ccccc3c2)C(=O)NC2(C(=O)N[C@@H](CCCCN(C)C(C)=O)C(=O)N[C@@H](CC(N)=O)C(=O)N[C@@H](Cc3cccnc3)C(=O)N(C)[C@@H](CCCCNC(=O)COCCOCCNC(=O)COCCOCCNC(=O)CC[C@H](NC(=O)CCCCCCCCCCC)C(=O)O)C(N)=O)CCOCC2)NC1=O)C(=O)O [compound 352, cPEG3aCO-Pen(3)-N(N(Me)2)-T-7MeW-K(PEG2PEG2gEC12)-Pen(3)-TMAPF-2Nal-THP-K(NMeac)-N-3Pya-NMeK(PEG2PEG2gEC12)-CONH2] ({Me3N+(CH2)2O(CH2)2O(CH2)2CO}-[Pen]D(NMe2)T[Trp(7-Me)]K([AEEA-AEEA-γGlu-Lauroyl])[Pen]Y(X3)[2Nal][Thp][Lys(Me)](Ac)N[3Pal][NMeK]([AEEA-AEEA-γGlu-Lauroyl])-NH2; disulfide 1-6) | 179 | 190
CCCCCCCCCCCC(=O)N[C@@H](CCC(=O)NCCOCCOCC(=O)NCCOCCOCC(=O)NCCCC[C@@H]1NC(=O)[C@@H](NC(=O)CCOCCOCC[N+](C)(C)C)C(C)(C)SSC(C)(C)[C@@H](C(=O)N[C@@H](Cc2ccc(OCCCCC[N+](C)(C)C)cc2)C(=O)N[C@@H](Cc2ccc3ccccc3c2)C(=O)NC2(C(=O)N[C@@H](CCCCN(C)C(C)=O)C(=O)N[C@@H](CC(N)=O)C(=O)N[C@@H](Cc3cccnc3)C(=O)N(C)[C@@H](CCCCNC(=O)COCCOCCNC(=O)COCCOCCNC(=O)CC[C@H](NC(=O)CCCCCCCCCCC)C(=O)O)C(N)=O)CCOCC2)NC(=O)[C@H](CCCCNC(C)=O)NC(=O)[C@H](Cc2c[nH]c3c(C)cccc23)NC(=O)[C@H]([C@@H](C)O)NC1=O)C(=O)O [compound 356, cPEG3aCO-Pen(3)-K(PEG2PEG2gEC12)-T-7MeW-K(Ac)-Pen(3)-TMAPF-2Nal-THP-K(NMeac)-N-3Pya-NMeK(PEG2PEG2gEC12)-CONH2] ({Me3N+(CH2)2O(CH2)2O(CH2)2CO}-[Pen]K([AEEA-AEEA-γGlu-Lauroyl])T[Trp(7-Me)]K(Ac)[Pen]Y(X3)[2Nal][Thp][Lys(Me)](Ac)N[3Pal][NMeK]([AEEA-AEEA-γGlu-Lauroyl])-NH2; disulfide 1-6) | 174 | 280
CCCCCCCCCCCC(=O)N[C@@H](CCC(=O)NCCOCCOCCOCCOCCOCCOCCC(=O)NCCOCCOCC(=O)NCCCC[C@@H](C(N)=O)N(C)C(=O)[C@H](Cc1cccnc1)NC(=O)[C@H](CC(N)=O)NC(=O)[C@H](CCCCN(C)C(C)=O)NC(=O)C1(NC(=O)[C@H](Cc2ccc3ccccc3c2)NC(=O)[C@H](Cc2ccc(OCCCCC[N+](C)(C)C)cc2)NC(=O)[C@H]2NC(=O)[C@H](CCCCNC(C)=O)NC(=O)[C@H](Cc3c[nH]c4c(C)cccc34)NC(=O)[C@H]([C@@H](C)O)NC(=O)[C@H](CC(=O)N(C)C)NC(=O)[C@@H](NC(=O)CCOCCOCC[N+](C)(C)C)C(C)(C)SSC2(C)C)CCOCC1)C(=O)O [compound 360, cPEG3aCO-Pen(3)-N(N(Me)2)-T-7MeW-K(Ac)-Pen(3)-TMAPF-2Nal-THP-K(NMeac)-N-3Pya-NMeK(PEG2PEG6gEC12)-CONH2] ({Me3N+(CH2)2O(CH2)2O(CH2)2CO}-[Pen]D(NMe2)T[Trp(7-Me)]K(Ac)[Pen]Y(X3)[2Nal][Thp][Lys(Me)](Ac)N[3Pal][NMeK]([AEEA-PEG6-γGlu-Lauroyl])-NH2; disulfide 1-6) | 166 | 8.4

Second part, the compound after the results:

EPSA [1] [A^2] | IC50 (IL-23R) [nM] | SMILES
168 | 12 | CCCCCCCCCCCCCC(=O)N[C@@H](CCC(=O)NCCOCCOCCOCCOCCOCCOCCC(=O)NCCOCCOCC(=O)NCCCC[C@@H](C(N)=O)N(C)C(=O)[C@H](Cc1cccnc1)NC(=O)[C@H](CC(N)=O)NC(=O)[C@H](CCCCN(C)C(C)=O)NC(=O)C1(NC(=O)[C@H](Cc2ccc3ccccc3c2)NC(=O)[C@H](Cc2ccc(OCCCCC[N+](C)(C)C)cc2)NC(=O)[C@H]2NC(=O)[C@H](CCCCNC(C)=O)NC(=O)[C@H](Cc3c[nH]c4c(C)cccc34)NC(=O)[C@H]([C@@H](C)O)NC(=O)[C@H](CC(=O)N(C)C)NC(=O)[C@@H](NC(=O)CCOCCOCC[N+](C)(C)C)C(C)(C)SSC2(C)C)CCOCC1)C(=O)O [compound 361, cPEG3aCO-Pen(3)-N(N(Me)2)-T-7MeW-K(Ac)-Pen(3)-TMAPF-2Nal-THP-K(NMeac)-N-3Pya-NMeK(PEG2PEG6gEC14)-CONH2] ({Me3N+(CH2)2O(CH2)2O(CH2)2CO}-[Pen]D(NMe2)T[Trp(7-Me)]K(Ac)[Pen]Y(X3)[2Nal][Thp][Lys(Me)](Ac)N[3Pal][NMeK]([AEEA-PEG6-γGlu-Myristoyl])-NH2; disulfide 1-6)
182 | 5.5 | CCCCCCCCCCCC(=O)N[C@@H](CCC(=O)NCCOCCOCC(=O)NCCOCCOCC(=O)NCCCC[C@@H](C(N)=O)N(C)C(=O)[C@H](Cc1cccnc1)NC(=O)[C@H](CC(N)=O)NC(=O)[C@H](CCCCN(C)C(C)=O)NC(=O)C1(NC(=O)[C@H](Cc2ccc3ccccc3c2)NC(=O)[C@H](Cc2ccc(OCCCCC[N+](C)(C)C)cc2)NC(=O)[C@H]2NC(=O)[C@H](CCCCNC(C)=O)NC(=O)[C@H](Cc3c[nH]c4c(C)cccc34)NC(=O)[C@H]([C@@H](C)O)NC(=O)[C@H](CC(N)=O)NC(=O)[C@@H](NC(=O)CCOCCOCC[N+](C)(C)C)C(C)(C)SSC2(C)C)CCOCC1)C(=O)O [compound 371, cPEG3aCO-Pen(3)-N-T-7MeW-K(Ac)-Pen(3)-TMAPF-2Nal-THP-K(NMeac)-N-3Pya-NMeK(PEG2PEG2gEC12)-CONH2] ({Me3N+(CH2)2O(CH2)2O(CH2)2CO}-[Pen]NT[Trp(7-Me)]K(Ac)[Pen]Y(X3)[2Nal][Thp][Lys(Me)](Ac)N[3Pal][NMeK]([AEEA-AEEA-γGlu-Lauroyl])-NH2; disulfide 1-6)
203 | 20 | CCCCCCCCCCCC(=O)N[C@@H](CCC(=O)NCCOCCOCC(=O)NCCOCCOCC(=O)NCCCC[C@H](NC(=O)COCCOCCNC(=O)COCCOCCNC(=O)CC[C@H](NC(=O)CCCCCCCCCCC)C(=O)O)C(=O)NCCOCCOCC(=O)NCCOCCOCC(=O)NCCCC[C@@H](C(N)=O)N(C)C(=O)[C@H](Cc1cccnc1)NC(=O)[C@H](CC(N)=O)NC(=O)[C@H](CCCCN(C)C(C)=O)NC(=O)C1(NC(=O)[C@H](Cc2ccc3ccccc3c2)NC(=O)[C@H](Cc2ccc(OCCCCC[N+](C)(C)C)cc2)NC(=O)[C@H]2NC(=O)[C@H](CCCCNC(C)=O)NC(=O)[C@H](Cc3c[nH]c4c(C)cccc34)NC(=O)[C@H]([C@@H](C)O)NC(=O)[C@H](CC(=O)N(C)C)NC(=O)[C@@H](NC(=O)CCOCCOCC[N+](C)(C)C)C(C)(C)SSC2(C)C)CCOCC1)C(=O)O [compound 372, cPEG3aCO-Pen(3)-N(N(Me)2)-T-7MeW-K(Ac)-Pen(3)-TMAPF-2Nal-THP-K(NMeac)-N-3Pya-NMeK(PEG2PEG2K(PEG2PEG2gEC12)2)-CONH2] ({Me3N+(CH2)2O(CH2)2O(CH2)2CO}-[Pen]D(NMe2)T[Trp(7-Me)]K(Ac)[Pen]Y(X3)[2Nal][Thp][Lys(Me)](Ac)N[3Pal][NMeK]([AEEA-AEEA-X46])-NH2; disulfide 1-6)

— patent publication US20260022143A1, “Cyclic Peptide Inhibitors of IL-23” (JANSSEN PHARMACEUTICA NV, priority 2022, published 2026)
